Consider three molecules from US6159705A, “Recombinant yeast cells for identifying receptor effectors” (Cadus Pharmaceutical Corporation, priority 1997, dated 2000).

The test system of one series is FPRL-1. Particulars: uM concentrations; cited from earlier work.
Another series deals with T1, Ste2p (Saccharomyces cerevisiae, UniProt D6VTK4).
T1 construct: CY 1638 (MATa far1*1442 tbt1-1 FUS1-HIS3 trp1ura3 leu2 his3 suc2); endogenous in cells; host or cells: S. cerevisiae CY 11643 (MATa, pho3 and pho4 disrupted, from CY 1638 via CY 9788), carrying PHO4/STE12 chimera plasmids or Cadus 4129
T1 sequence (D6VTK4 1-431): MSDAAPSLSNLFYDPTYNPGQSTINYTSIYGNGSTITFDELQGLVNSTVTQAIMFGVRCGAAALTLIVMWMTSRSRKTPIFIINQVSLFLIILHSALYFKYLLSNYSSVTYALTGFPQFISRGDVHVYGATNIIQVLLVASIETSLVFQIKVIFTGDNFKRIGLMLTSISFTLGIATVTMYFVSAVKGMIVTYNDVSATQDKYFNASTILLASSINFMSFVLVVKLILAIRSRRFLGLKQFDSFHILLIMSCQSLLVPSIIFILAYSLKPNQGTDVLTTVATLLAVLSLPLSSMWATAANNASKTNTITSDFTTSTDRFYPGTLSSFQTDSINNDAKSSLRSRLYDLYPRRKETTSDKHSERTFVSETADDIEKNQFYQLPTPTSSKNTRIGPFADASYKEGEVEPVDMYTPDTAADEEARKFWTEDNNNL
Nature of the series: Pho5p acid phosphatase activity in strains with PHO4/STE12 chimerae (Ste2p activation). It counts as cell-based, S. cerevisiae. The protocol:
were used to amplify the KanMX2 gene. The amplification product was flanked by sequences corresponding to the 5' and 3' ends of the PHO4 gene. […] Transformants were selected on YEPD+geneticin (200 μg/ml) plates. […] Cells were patched onto YEPD or phosphate-depleted YEPD plates and allowed to grow overnight. For each plate, a mixture of 2 ml of molten 1% agarose in 50 mM NaAc pH 4.0, 700 μl H2 O, and 300 μl α-napthyl acid phosphate (50 mg/ml) was prepared and applied to the plate. Then 1 ml of D-dianisidine fast blue salt B (50 mg/ml in 50 mM NaAc pH 4.0) was poured onto the plate. The degree of color development is a measure of acid phosphatase activity produced by the patch of cells.
The PHO3 gene also encodes a secreted acid phosphatase, but its expression is not regulated by Pho4p. […] Since this gene is not essential and its presence would require that all assays be done under conditions of phosphate starvation, it was disrupted. Primers
were used to amplify sequences in the 3' untranslated region of the PHO3 gene. The amplification product which bears an EcoRI site ate its 5' end and an XbaI site at its 3' end was digested with EcoRI and XbaI and gel purified.
Cells were grown overnight in SD TRP- media. […] The cultures were split in half (2.5 ml each) and α-factor (25 μg) was added to one aliquot. After 2.5 hours at 30° C., the cells were collected by centrifugation, washed 3 times with H2 O, once with 50 mM NaAc pH 4.0, and resuspended in 250 μl 50 mM NaAc pH 4.0. […] 100 μl cells were added to 400 μl p-nitrophenyl phosphate (1 mg/ml in 50 mM NaAc pH 4.0). After 15 min at room temperature, 720 μl saturated NaCO3 was added to stop the reaction. The cells were removed by centrifugation and the optical density at 420 nm was determined.

The target of series [1] is T2, S. cerevisiae pheromone receptor, Ste2p (Saccharomyces cerevisiae, UniProt D6VTK4).
T2 sequence (D6VTK4 1-431): T1 sequence (D6VTK4 1-431)
Description: Bar1 plate assay, agonist-induced Ste2p activation. It counts as cell-based. The protocol:
The cells were removed from the culture by filtration.
Assay plates were prepared as follows. CY 579 cells were grown overnight in YEPD medium.
Since CY 579 lacks the BAR1 gene, it is super-sensitive to α-factor causing its growth to be arrested on the YEPD+α-factor plate. If the conditioned media applied to the lawn contains Bar1p activity, the α-factor in that region is destroyed, allowing growth of the CY 579 cells.
First, the gene encoding the S. cerevisiae Gα, GPA 1, was reintroduced into the genome of CY 8034 (MATa gpa1*1162 far1-1 ste2*1154 ste14::trp1::LYS2 fus1-HIS3 ura3 trp1 leu2 lys2 his3 ade2-1 met1) by transformation with an integrating plasmid encoding GPA1 (Cadus 3907), creating CY 11364. Next, the gene encoding the S. cerevisiae RGS protein, SST2, was disrupted in this strain to create CY 11645. Since Sst2p is involved in desensitization of the pheromone response pathway, its disruption results in increased signaling through the pathway (Reviewed by Sprague and Thorner in Molecular and Cellular Biology of the Yeast Saccharomyces. Vol. 2. 1992).
A high copy number Ste2 expression plasmid was constructed as follows. […]
(to OD600 0.4). […] A standard curve was also done with each experiment (described in Example 1) to quantitate the results.

In series [2] the test system is human C5a receptor. Description: Autocrine activation of pheromone pathway, growth read-out (fus1-HIS3). Type of series: cell-based. From the text: The strain used for this analysis, CY455 (MATα tbt1-1 ura3 leu2 trp1 his3 fus1-HIS3 can1 ste14::TRP1 ste3* 1156) contains the following significant modifications. A pheromone inducible HIS3 gene, fus1-HIS3, is integrated at the Fus1 locus. A hybrid gene containing sequence encoding the first 41 amino acids of GPA1 (the yeast Gα subunit) fused to sequence encoding human Gαi2a (minus codons for the N-terminal 33 amino acids) replaces GPA1 at its normal chromosomal location. The yeast STE14 gene is disrupted to lower the basal level of signaling through the pheromone response pathway. The yeast a-factor receptor gene, STE3, is deleted. The last two modifications are probably not essential, but appear to improve the signal-to-noise ratio.
CY455 (MATα tbt1-1 ura3 leu2 trp1 his3 fus1-HIS3 can1 ste14::TRP1 ste3 * 1156) was transformed with the following plasmids:
Cadus 1303+Cadus 1297=Receptor^+ Ligand^+ =(R+L+)
Three colonies were picked from each transformation and grown overnight in media lacking leucine and uracil, at pH 6.8 with 25 mM PIPES (LEU URA pH6.8 with 25 mM PIPES). This media was made by adding 0.45 ml of sterile 1 M KOH and 2.5 ml of sterile 1M PIPES pH 6.8 to 100 ml of standard SD LEU- URA- media. […] The optical density at 600 nm of a 1/20 dilution of these cultures was determined and the cultures were diluted into 25 mM PIPES pH 6.8 to a final OD600 of 0.2. […]

Another series relates to induced HL60 cells. Nature of the series: Competition with radiolabeled C5a for binding on induced HL60 cells. As to conditions: C5a expressed in yeast.
Series [3] relates to human C5a receptor. Nature of the series: Autocrine activation, fus1-lacZ beta-galactosidase. It counts as cell-based. Particulars: R+L+ cells. The protocol:
CY878 (MATα tbt1-1 fus1-HIS3 caN1 ste14::trp1::LYS2 ste3* 1156 gpal(41)-Gαi2) was used as the starting strain for these experiments. This strain is a trp1 derivative of CY455. The transformants for this experiment contained CADUS 1584 (pRS424-fus1-lacZ) in addition to the receptor and ligand plasmids. Four strains were grown overnight in SD LEU URA TRP pH6.8 with 50 mM PIPES to an OD600 of less than 0.8. Assay of β-galactosidase activity can be done useing methods known in the art (Guarente 1983).

The next series has as its target C5a receptor. As to conditions: data derived from mammalian cells; read-out: binding constant of C5a to its receptor; cited from earlier work.

For the molecule `CSCC[C@H](NC=O)C(=O)N[C@@H](CC(C)C)C(=O)N[C@@H](Cc1ccccc1)C(=O)O` [f-Met-Leu-Phe], in the series on FPRL-1, the “binding to fibroblasts transfected with FPRL-1 cDNA” value was “weak binding”.

For the molecule α-factor, the “acid phosphatase activity inducible by pheromone” value on Ste2p (all strains expressing Pho4/Ste12 chimerae) was “pheromone-inducible acid phosphatase activity was observed”. The “change of acid phosphatase activity on exposure to α-factor” value on Ste2p (cells expressing only the Pho4p DNA binding domain (CY11643+Cadus 4129)) is reported as “not increased by exposure to α-factor”. For the same molecule, the Pho5p induction ratio on Ste2p (other chimerae with very low constitutive activity) is 5-10 fold; at Ste2p (two chimerae with high constitutive activity (printed Cadus 4184 and Cadus 4185)) it was 2-4 fold. The “increase in Bar1p activity” value in series [1] (cells expressing Ste2p (CY 11728), α-factor 10 μg, 2 h, 30° C.) is reported as “greater than 8 fold”. The “Bar1p activity in conditioned media” value in series [1] (cells lacking the Ste2p expression plasmid (CY 11727)) is listed as “Little or no Bar1p activity was detected”.

B1: C5a: Human C5a is a 74 amino acid polypeptide that derives from the fifth component of complement (protein, UniProt P01031 678-751, looked up)
C5a anaphylatoxin: TLQKKIEEIAAKYKHSVVKKCCYDGACVNNDETCEQRAARISLGPRCIKAFTECCVVASQLRANISHKDMQLGR
modifications: C5a anaphylatoxin
notes: Human C5a is a 74 amino acid polypeptide that derives from the fifth component of complement
Take B1: in the series with human C5a receptor [2] (R+L+ strain, C5a expressed by the cell), the “growth on selective plates lacking histidine” value is “show growth on the selective plates”. For the same molecule, the “aminotriazole concentration up to which the R+L+ strain will grow” value in the series on human C5a receptor [2] (highest concentration tested) is “up to 5 mM”. Besides, the “competition for binding with radiolabeled C5a” value in the series on induced HL60 cells is “shown to compete for binding”. Besides, in the series with human C5a receptor [3], the “autocrine stimulation and β-galactosidase activity” value was “results in autocrine stimulation and β-galactosidase activity”. The Kd on C5a receptor was 1 nM.
